Like-named read-outs stand apart in the source and are kept apart here. Square brackets hold non-standard residues; d marks the D form. Peptide text beside a SMILES is read from it.
Key:
in vitro = in vitro ADME, P. aeruginosa PAO1; details: for remaining at 2 h: cells or culture medium
Protocol: P. aeruginosa PAO1 lysate, which was used to test peptide stability, was prepared by the following procedure. 500 ml of cells grown overnight at 37°C were harvested by centrifugation at 5000 rpm, 10 min at 4°C. Pellets were resuspended in 60 ml PBS (Gibco) and centrifuged at 5000 rpm, 10 min at 4°C. Pellets were resuspended again in 20 ml PBS and centrifuged at 5000 rpm, 10 min at 4°C. Cells were disrupted using high-pressure cell disrupter (Stansted Fluid Power). Cell lysate was separated from cell debris by centrifugation at 14,000 rpm for 20 min at 4°C. Lysate was diluted 10 fold to yield a protein content of about 1 mg/ml. The lysate was used for all experiments described below.
The stability of peptides was tested against P. aeruginosa PAO1 cell lysate. About 1 to 3 µg of peptides were incubated with 5 µl P. aeruginosa PAO1 cell lysate or PBS (untreated controls) at 37°C. After 2 hours, 6 µl of 2x SDS sample buffer was added to the samples and heated to 95°C for 5 min. Samples were analyzed on 10-20% Mini-PROTEAN tris-tricine gels (BIO-RAD #4563115) according to manufacturer's recommended protocol. Band intensities were quantified using the program ImageJ (Schneider, C. A., Rasband, W. S. and Eliceiri, K. W. 2012. NIH Image to ImageJ: 25 years of image analysis. Nature methods. 9: 671-675).

c-di-GMP = experiment: Binding affinity of peptides to c-di-GMP by isothermal titration calorimetry (ITC); details: for binding affinity to c-di-GMP, in words: compared to the core sequence / peptide of SEQ ID NO: 12; for Kd: 15°C, pH 8.0, read-out: Dissociation constant; for decrease of c-di-GMP binding affinity compared to the peptide of SEQ ID NO: 12: single amino acid deletion
Protocol: Binding affinities of peptides to c-di-GMP were measured using isothermal titration calorimetry (ITC) on a VP-ITC MicroCalorimeter (MicroCal, Northampton, MA, USA). Peptides, c-di-GMP and buffer (50 mM Tris-HCl, pH 8.0, 100 mM NaCl) were degassed for 15 min prior to filling into sample cell and syringe. All experiments were carried out at a temperature of 15°C. The data were evaluated using ITC Data Analysis in ORIGIN provided by the manufacturer.

[1] = Table 4, deletion of single amino acid

Compound	binding affinity to c-di-GMP, in words (c-di-GMP)	other results
C[C@H](NC(=O)[C@H](CO)NC(=O)[C@H](CC(N)=O)NC(=O)[C@H](Cc1ccccc1)NC(=O)[C@H](CCCNC(=N)N)NC(=O)[C@H](CCCNC(=N)N)NC(=O)[C@H](CCCNC(=N)N)NC(=O)[C@H](CC(=O)O)NC(=O)[C@H](N)CCCNC(=N)N)C(=O)N[C@@H](CC(=O)O)C(=O)N[C@@H](Cc1ccc(O)cc1)C(=O)N[C@@H](CCCCN)C(=O)NCC(=O)N1CCC[C@H]1C(=O)N[C@@H](CCCNC(=N)N)C(=O)N[C@@H](CCCNC(=N)N)C(=O)N[C@@H](CCCNC(=N)N)C(=O)N[C@@H](CCCCN)C(=O)N[C@@H](C)C(=O)N[C@@H](CC(=O)O)C(=O)N[C@H](C)C(N)=O [SEQ ID NO: 42, rDRRRFNSADYKGPRRRKADa-NH2] (H-[dR]DRRRFNSADYKGPRRRKAD[dA]-NH2)	–	Remaining peptide after 2 hours (in vitro): significant improvement
C[C@H](NC(=O)[C@H](CO)NC(=O)[C@H](CC(N)=O)NC(=O)[C@H](Cc1ccccc1)NC(=O)[C@H](CCCNC(=N)N)NC(=O)[C@H](CCCNC(=N)N)NC(=O)[C@H](CCCNC(=N)N)NC(=O)[C@H](N)CC(=O)O)C(=O)N[C@@H](CC(=O)O)C(=O)N[C@@H](Cc1ccc(O)cc1)C(=O)N[C@@H](CCCCN)C(=O)NCC(=O)N1CCC[C@H]1C(=O)N[C@@H](CCCNC(=N)N)C(=O)N[C@@H](CCCNC(=N)N)C(=O)N[C@@H](CCCNC(=N)N)C(=O)N[C@@H](CCCCN)C(=O)N[C@@H](C)C(=O)N[C@H](CC(=O)O)C(=O)O [compound 39] (H-[dD]RRRFNSADYKGPRRRKA[dD]-OH)	–	remaining at 2 h (in vitro): 19%
C[C@H](NC(=O)[C@H](CO)NC(=O)[C@H](CC(N)=O)NC(=O)[C@H](Cc1ccccc1)NC(=O)[C@H](CCCNC(=N)N)NC(=O)[C@H](CCCNC(=N)N)NC(=O)[C@H](CCCNC(=N)N)NC(=O)[C@H](CC(=O)O)NC(=O)[C@H](N)CCCNC(=N)N)C(=O)N[C@@H](CC(=O)O)C(=O)N[C@@H](Cc1ccc(O)cc1)C(=O)N[C@@H](CCCCN)C(=O)NCC(=O)N1CCC[C@H]1C(=O)N[C@@H](CCCNC(=N)N)C(=O)N[C@@H](CCCNC(=N)N)C(=O)N[C@@H](CCCNC(=N)N)C(=O)N[C@@H](CCCCN)C(=O)N[C@@H](C)C(=O)N[C@@H](CC(=O)O)C(=O)N[C@H](C)C(=O)O [compound 40] (H-[dR]DRRRFNSADYKGPRRRKAD[dA]-OH)	–	remaining at 2 h (in vitro): 15%
CC(=O)N[C@H](CCCNC(=N)N)C(=O)N[C@@H](CC(=O)O)C(=O)N[C@@H](CCCNC(=N)N)C(=O)N[C@@H](CCCNC(=N)N)C(=O)N[C@@H](CCCNC(=N)N)C(=O)N[C@@H](Cc1ccccc1)C(=O)N[C@@H](CC(N)=O)C(=O)N[C@@H](CO)C(=O)N[C@@H](C)C(=O)N[C@@H](CC(=O)O)C(=O)N[C@@H](Cc1ccc(O)cc1)C(=O)N[C@@H](CCCCN)C(=O)NCC(=O)N1CCC[C@H]1C(=O)N[C@@H](CCCNC(=N)N)C(=O)N[C@@H](CCCNC(=N)N)C(=O)N[C@@H](CCCNC(=N)N)C(=O)N[C@@H](CCCCN)C(=O)N[C@@H](C)C(=O)N[C@@H](CC(=O)O)C(=O)N[C@H](C)C(N)=O [compound 41] (Ac-[dR]DRRRFNSADYKGPRRRKAD[dA]-NH2)	–	remaining at 2 h (in vitro): 19%
Ac-ARRRFNSADYKGPRRRKAD-NH2 [SEQ ID NO: 13, AC-ARRRFNSADYKGPRRRKAD-NH2]	significantly reduced binding affinities	–
Ac-DARRFNSADYKGPRRRKAD-NH2 [SEQ ID NO: 14, AC-DARRFNSADYKGPRRRKAD-NH2]	significantly reduced binding affinities	–
Ac-DRARFNSADYKGPRRRKAD-NH2 [SEQ ID NO: 15, AC-DRARFNSADYKGPRRRKAD-NH2]	significantly reduced binding affinities	–
Ac-DRRAFNSADYKGPRRRKAD-NH2 [SEQ ID NO: 16, AC-DRRAFNSADYKGPRRRKAD-NH2]	sufficiently high to bind c-di-GMP	–
Ac-DRRFNSADYKGPRRRKAD-NH2 [SEQ ID NO: 32, AC-DRRFNSADYKGPRRRKAD-NH2]	Affinity decreased further	–
Ac-DRRFNSADYKGPRRRKAD-NH2 [compound 32]	–	Kd (c-di-GMP; [1]): 1040 nM
Ac-DRRRANSADYKGPRRRKAD-NH2 [compound 17]	–	Kd (c-di-GMP; Table 3, peptides with amino acid substitution): 140 nM
Ac-DRRRFASADYKGPRRRKAD-NH2 [SEQ ID NO: 18, AC-DRRRFASADYKGPRRRKAD-NH2]	does not significantly reduce binding affinity	–
Ac-DRRRFNAADYKGPRRRKAD-NH2 [SEQ ID NO: 19, AC-DRRRFNAADYKGPRRRKAD-NH2]	does not significantly reduce binding affinity	–
Ac-DRRRFNADYKGPRRRKAD-NH2 [SEQ ID NO: 35, AC-DRRRFNADYKGPRRRKAD-NH2]	–	decrease of c-di-GMP binding affinity compared to the peptide of SEQ ID NO: 12 (c-di-GMP): 2 to 3 fold
Ac-DRRRFNADYKGPRRRKAD-NH2 [compound 35]	–	Kd (c-di-GMP; [1]): 440 nM
Ac-DRRRFNSAAYKGPRRRKAD-NH2 [SEQ ID NO: 21, AC-DRRRFNSAAYKGPRRRKAD-NH2]	does not significantly reduce binding affinity	–
Ac-DRRRFNSADAKGPRRRKAD-NH2 [SEQ ID NO: 22, AC-DRRRFNSADAKGPRRRKAD-NH2]	significantly reduced binding affinities	–
Ac-DRRRFNSADYAGPRRRKAD-NH2 [SEQ ID NO: 23, AC-DRRRFNSADYAGPRRRKAD-NH2]	does not significantly reduce binding affinity	–

Compound	binding affinity to c-di-GMP, in words (c-di-GMP)	other results
Ac-DRRRFNSADYKAPRRRKAD-NH2 [SEQ ID NO: 24, AC-DRRRFNSADYKAPRRRKAD-NH2]	significantly reduced binding affinities	–
Ac-DRRRFNSADYKGARRRKAD-NH2 [SEQ ID NO: 25, AC-DRRRFNSADYKGARRRKAD-NH2]	sufficiently high to bind c-di-GMP	–
Ac-DRRRFNSADYKGPARRKAD-NH2 [SEQ ID NO: 26, AC-DRRRFNSADYKGPARRKAD-NH2]	significantly reduced binding affinities	–
Ac-DRRRFNSADYKGPRARKAD-NH2 [SEQ ID NO: 27, AC-DRRRFNSADYKGPRARKAD-NH2]	significantly reduced binding affinities	–
Ac-DRRRFNSADYKGPRRRAAD-NH2 [SEQ ID NO: 29, AC-DRRRFNSADYKGPRRRAAD-NH2]	does not significantly reduce binding affinity	–
Ac-DRRRFNSADYKGPRRRKAA-NH2 [SEQ ID NO: 31, AC-DRRRFNSADYKGPRRRKAA-NH2]	significantly reduced binding affinities	–
Ac-DRRRFNSADYKGPRRRKLD-NH2 [SEQ ID NO: 30, AC-DRRRFNSADYKGPRRRKLD-NH2]	does not significantly reduce binding affinity	–
Ac-DRRRFNSADYKPRRRKAD-NH2 [SEQ ID NO: 38, AC-DRRRFNSADYKPRRRKAD-NH2]	–	decrease of c-di-GMP binding affinity compared to the peptide of SEQ ID NO: 12 (c-di-GMP): about 12 fold
Ac-DRRRFNSADYKPRRRKAD-NH2 [compound 38]	–	Kd (c-di-GMP; [1]): 1950 nM
Ac-DRRRFNSAYKGPRRRKAD-NH2 [SEQ ID NO: 37, AC-DRRRFNSAYKGPRRRKAD-NH2]	–	decrease of c-di-GMP binding affinity compared to the peptide of SEQ ID NO: 12 (c-di-GMP): 2 to 3 fold
Ac-DRRRFNSAYKGPRRRKAD-NH2 [compound 37]	–	Kd (c-di-GMP; [1]): 440 nM
Ac-DRRRFNSDYKGPRRRKAD-NH2 [SEQ ID NO: 36, AC-DRRRFNSDYKGPRRRKAD-NH2]	–	decrease of c-di-GMP binding affinity compared to the peptide of SEQ ID NO: 12 (c-di-GMP): 2 to 3 fold
Ac-DRRRFNSDYKGPRRRKAD-NH2 [compound 36]	–	Kd (c-di-GMP; [1]): 340 nM
Ac-DRRRFNSLDYKGPRRRKAD-NH2 [SEQ ID NO: 20, AC-DRRRFNSLDYKGPRRRKAD-NH2]	does not significantly reduce binding affinity	–
Ac-DRRRFSADYKGPRRRKAD-NH2 [SEQ ID NO: 34, AC-DRRRFSADYKGPRRRKAD-NH2]	Affinity decreased further	–
Ac-DRRRFSADYKGPRRRKAD-NH2 [compound 34]	–	Kd (c-di-GMP; [1]): 1250 nM
Ac-DRRRNSADYKGPRRRKAD-NH2 [SEQ ID NO: 33, AC-DRRRNSADYKGPRRRKAD-NH2]	Affinity decreased further	–
Ac-DRRRNSADYKGPRRRKAD-NH2 [compound 33]	–	Kd (c-di-GMP; [1]): 1270 nM

Reference: EP3335720A1, “C-DI-GMP BINDING PEPTIDES” (Universität Basel, priority 2016, dated 2018)
